Patent publication US20150219624A1, “METHODS FOR IDENTIFYING ANTI-CANCER COMPOUNDS” (MEMORIAL SLOAN KETTERING CANCER CENTER, priority 2013, published 2015)

Key:
[1] = tested on: KOPTK1 cells; assay: Metabolic labeling of nascent protein with L-azidohomoalanine (AHA); type: cell-based, human; conditions: 100 nM; p vs. vehicle 2×10−4
Experimental: (Non-radioactive) Metabolic labeling of nascent protein. KOPTK1 cells were labeled for nascent protein synthesis using Click-iTR AHA (L-azidohomoalanine) metabolic labeling reagent obtained from Invitrogen (cat no. C10102) as per manufacturer's instructions. Briefly, following silvestrol, Cycloheximide or DMSO treated cells were incubated in methionine free medium for 30 min prior to AHA labeling for 1 hr. Cells were fixed with 4% paraformaldehyde in PBS for 15 min, permeablized with 0.25% Triton X-100 in PBS for 15 min followed by one wash with 3% BSA. Cells were then stained using Alexa Fluor 488 Alkyne (Invitrogen cat no. A10267) with Click-iT Cell reaction Buffer Kit (Invitrogen cat no. C10269). Changes in mean fluorescence intensity as a measure of newly synthesized protein was detected by Flow cytometry analysis.
The number of ribosomes occupying a given transcript is given as gene specific RF reads per one million total reads (RPM).
FIG. 10 depicts ribosome profiling quality control data and effects on translation. A and B) Read counts by length of mapped sequence before and after filtering rRNA, linker reads, non-coding RNAs, short mapped sequences (“noisy” reads; see text and method for details). C and D) Read length frequency histograms and mapping analysis of ribosome footprint data after quality control filtering for vehicle treated cells (C) or silvestrol treated cells (D). […]

[2] = tested on: cap-dependent translation; assay: Dual-luciferase reporter assay (capped vs IRES-driven luciferase); type: cell-based; conditions: renilla and firefly luciferase either capped or under control of an IRES element
Experimental: Luciferase assays. Four tandem repeats of the (CGG)4 12-mer motif (GQs) or random sequence matched for length and GC content (random) were cloned into the 5′UTR of Renilla luciferase plasmid pGL4.73. Empty firefly luciferase plasmid pGL4.13 or HCV-IRES firefly were used as internal controls. Luciferase assays were performed using Dual-Luciferase Reporter Assay System (Promega E1960) following the manufacturer's instructions. GQs sequence: […]

C[C@@H]1C[C@@H]([C@H](O)CC2CC(=O)NC(=O)C2)C(=O)[C@@H](C)C1 [cycloheximide, Cycloheximide]
max. reduction of nascent protein synthesis (AHA labeling) [1]: 80%

C[C@H]1C[C@@]2(O[C@H]3C[C@H]4[C@@H]5CC[C@H]6C[C@H](O)CC[C@]6(C)[C@H]5[C@@H](O)C[C@]4(C)[C@H]3[C@@]2(C)O)OC1(C)C [hippuristanol]
block of cap-dependent versus IRES-dependent translation [2]: preferentially block cap-dependent over IRES-dependent translation

CC(/C=C/C(C)=C/[C@@H]1Cc2nc(cs2)[C@@H](C)C[C@@H](N)CC(=O)O[C@@H](C)C/C(C)=C/C=C\C(=O)O1)=C\CN(C)C [pateamine A, (3S,6Z,8E,11S,15R,17S)-15-amino-3-[(1E,3E,5E)-7-(dimethylamino)-2,5-dimethylhepta-1,3,5-trienyl]-9,11,17-trimethyl-4,12-dioxa-20-thia-21-azabicyclo[16.2.1]henicosa-1(21),6,8,18-tetraene-5,13-dione]
block of cap-dependent versus IRES-dependent translation [2]: preferentially block cap-dependent over IRES-dependent translation
